The results in this text go back to patent US20250223268A1, “4-Methylsulfonylbenzamide Compound, Preparation Method, Herbicidal Composition And Use” (Jiangsu Flag Chemical Industry Co., Ltd., priority 2022, published 2025).

Molecules are shown by their SMILES.

Experiment in all cases: Greenhouse herbicidal activity assay, post-emergence
Common to all, as to assay type: in vivo

The subject of one test is Echinochloa crusgalli. The conditions noted are these: Post-emergence test, rate 150 g a.i./hm^2, grade by fresh weight inhibition rate; for pest or weed control at 150 g/ha: Echinochloa crus-galli, read-out: Control efficacy grade, Echinochloa crusgalli. The source says: (§1) Post-emergence: Seeds of gramineous weeds (Echinochloa crusgalli, Echinochloa crusgalli var. zelayensis, Echinochloa phyllopogon, Eleusine indica, Digitaria sanguinalis, Leptochloa chinensis, Setaria viridis, Alopecurus japonicus Steud, Beckmannia syzigachne, Polypogon fugax, Alopecurus aequalis, Lolium multiflorum, Poa annua, Aegilops tataschii, Avena fatua, Alopecurus myosuroides, Bromus japonicus), broadleaf weeds (Eclipta prostrata, Amaranthus retroflexus, Rorippa indica, Myosoton aquaticum, Veronica didyma, Galium aparine, Solanum nigrum, Xanthium sibiricum, Conyza canadensis, Sesbania cannabina, Sagittaria trifolia), and Cyperus iria (Cyperus iria, Scirpus juncoides, Cyperus difformis, etc.) were sown in plastic pots (7 cm diameter) with nutrient soil and bottom holes. Crop seeds (including Oryza sativa subsp. indica, Oryza sativa subsp. japonica, Oryza sativa L. var. Glutinosa matsum, Triticum aestivum, Zea mays, Sorghum bicolor, Setaria italica, Glycine max, Gossypium hirsutum, Brassica napus, Arachis hypogaea) were sown in plastic pots (10 cm diameter) with nutrient soil and bottom holes. After sowing, the pots were placed in the growth chamber until the plants reached the 3-6 leaf stage for foliar spraying. Post-treatment, the materials were air-dried naturally and returned to the growth chamber. Results were assessed 14-21 days later.
(§2) • A: Fresh weight inhibition rate≥80% to 100%; • B: Fresh weight inhibition rate[…] to <80%; • C: Fresh weight inhibition rate≥40% to <60%; • D: Fresh weight inhibition rate≥20% to <40%; • E: Fresh weight inhibition rate<20%; • NT: Not tested.

A further test has as its system Eclipta prostrata. To be noted: Post-emergence test, rate 150 g a.i./hm^2; grade by fresh weight inhibition rate.
Description: as §1, §2

For the next test, the system named is Cyperus iria. To be noted: Post-emergence test, rate 150 g a.i./hm^2, grade by fresh weight inhibition rate.
Description: as §1, §2

A further test has as its system Leptochloa chinensis. To be noted: Post-emergence test, rate 150 g a.i./hm^2, grade by fresh weight inhibition rate.
Description: as §1, §2

With `CCC(C)[S+]([O-])c1c(S(C)(=O)=O)ccc(C(=O)N(C)c2nnc(C)o2)c1Cl` (mixture of isomers) [Compound 3-820], the “Control efficacy grade, Echinochloa crusgalli” value in the test with Echinochloa crusgalli is “A (Fresh weight inhibition rate≥80% to 100%)”.

Take `CCC(C)Sc1c(S(C)(=O)=O)ccc(C(=O)Nc2nnnn2C)c1Cl` (racemic) [Compound 1-16]: the “Control efficacy grade, Echinochloa crusgalli” value with Echinochloa crusgalli is listed as “A (Fresh weight inhibition rate≥80% to 100%)”. The “Control efficacy grade, Eclipta prostrata” value in the test on Eclipta prostrata was “A (Fresh weight inhibition rate≥80% to 100%)”. Further, in the test with Cyperus iria, the “Control efficacy grade, Cyperus iria” value is given as “B (Fresh weight inhibition rate≥260% to <80%)”. The “Control efficacy grade, Leptochloa chinensis” value in the test with Leptochloa chinensis is given as “A (Fresh weight inhibition rate≥80% to 100%)”.

`Cn1nnnc1NC(=O)c1ccc(S(C)(=O)=O)c([S+]([O-])C2CCCC2)c1Cl` (racemic) [Compound 1-43]: in the test on Echinochloa crusgalli, the “Control efficacy grade, Echinochloa crusgalli” value is reported as “A (Fresh weight inhibition rate≥80% to 100%)”. Further, in the test on Eclipta prostrata, the “Control efficacy grade, Eclipta prostrata” value is “A (Fresh weight inhibition rate≥80% to 100%)”. The “Control efficacy grade, Cyperus iria” value in the test on Cyperus iria is “A (Fresh weight inhibition rate≥80% to 100%)”. Also, in the test with Leptochloa chinensis, the “Control efficacy grade, Leptochloa chinensis” value is listed as “A (Fresh weight inhibition rate≥80% to 100%)”.

`CCC[S+]([O-])c1c(S(C)(=O)=O)ccc(C(=O)N(C)c2nnnn2C)c1Cl` (racemic) [Compound 1-98]: the “Control efficacy grade, Echinochloa crusgalli” value with Echinochloa crusgalli is listed as “A (Fresh weight inhibition rate≥80% to 100%)”. In the test on Cyperus iria, the “Control efficacy grade, Cyperus iria” value was “A (Fresh weight inhibition rate≥80% to 100%)”. Moreover, in the test on Leptochloa chinensis, the “Control efficacy grade, Leptochloa chinensis” value is recorded as “A (Fresh weight inhibition rate≥80% to 100%)”.

With `CCC[S+]([O-])c1c(S(C)(=O)=O)ccc(C(=O)N(C)c2ncnn2C)c1Cl` (racemic) [Compound 2-78], the “Control efficacy grade, Echinochloa crusgalli” value with Echinochloa crusgalli is reported as “A (Fresh weight inhibition rate≥80% to 100%)”.

`CCc1nnc(NC(=O)c2ccc(S(C)(=O)=O)c(SC(C)CC)c2Cl)o1` (racemic) [Compound 3-398]: the “Control efficacy grade, Echinochloa crusgalli” value with Echinochloa crusgalli is listed as “B (Fresh weight inhibition rate≥260% to <80%)”. Moreover, the “Control efficacy grade, Cyperus iria” value with Cyperus iria is given as “A (Fresh weight inhibition rate≥80% to 100%)”. In addition, in the test on Leptochloa chinensis, the “Control efficacy grade, Leptochloa chinensis” value is “A (Fresh weight inhibition rate≥80% to 100%)”.

On to `CC(C)c1nnc(NC(=O)c2ccc(S(C)(=O)=O)c([S+]([O-])C3CCCC3)c2Cl)o1` (racemic) [Compound 3-546], for which the “Control efficacy grade, Echinochloa crusgalli” value with Echinochloa crusgalli is listed as “B (Fresh weight inhibition rate≥260% to <80%)”. In addition, the “Control efficacy grade, Eclipta prostrata” value in the test on Eclipta prostrata is “A (Fresh weight inhibition rate≥80% to 100%)”. In the test on Cyperus iria, the “Control efficacy grade, Cyperus iria” value is reported as “A (Fresh weight inhibition rate≥80% to 100%)”. Further, the “Control efficacy grade, Leptochloa chinensis” value with Leptochloa chinensis was “A (Fresh weight inhibition rate≥80% to 100%)”.

For `CC(C)c1nnc(NC(=O)c2ccc(S(C)(=O)=O)c([S+]([O-])C3CCCCC3)c2Cl)o1` (racemic) [Compound 3-551], the “Control efficacy grade, Echinochloa crusgalli” value in the test with Echinochloa crusgalli was “B (Fresh weight inhibition rate≥260% to <80%)”. In addition, the “Control efficacy grade, Eclipta prostrata” value in the test on Eclipta prostrata is “A (Fresh weight inhibition rate≥80% to 100%)”. The “Control efficacy grade, Cyperus iria” value in the test with Cyperus iria is “A (Fresh weight inhibition rate≥80% to 100%)”. Further, in the test on Leptochloa chinensis, the “Control efficacy grade, Leptochloa chinensis” value is “A (Fresh weight inhibition rate≥80% to 100%)”.

`CC(C)c1nnc(N(C)C(=O)c2ccc(S(C)(=O)=O)c([S+]([O-])C(C)C)c2Cl)o1` (racemic) [Compound 3-808]: in the test with Echinochloa crusgalli, the “Control efficacy grade, Echinochloa crusgalli” value is “B (Fresh weight inhibition rate≥260% to <80%)”.

With `CC(C)[S+]([O-])c1c(S(C)(=O)=O)ccc(C(=O)N(C)c2nnc(C3CC3)o2)c1Cl` (racemic) [Compound 3-809], in the test on Echinochloa crusgalli, the “Control efficacy grade, Echinochloa crusgalli” value is “B (Fresh weight inhibition rate≥260% to <80%)”.

Turning to `Cc1nnc(N(C)C(=O)c2ccc(S(C)(=O)=O)c([S+]([O-])C3CC3)c2Cl)o1` (racemic) [Compound 3-812], the “Control efficacy grade, Echinochloa crusgalli” value with Echinochloa crusgalli is recorded as “B (Fresh weight inhibition rate≥260% to <80%)”. Also, the “Control efficacy grade, Eclipta prostrata” value in the test on Eclipta prostrata is on record as “A (Fresh weight inhibition rate≥80% to 100%)”. Also, in the test on Leptochloa chinensis, the “Control efficacy grade, Leptochloa chinensis” value is given as “B (Fresh weight inhibition rate≥260% to <80%)”.

For `CCCC[S+]([O-])c1c(S(C)(=O)=O)ccc(C(=O)N(C)c2nnc(C)o2)c1Cl` (racemic) [Compound 3-815], in the test on Echinochloa crusgalli, the “Control efficacy grade, Echinochloa crusgalli” value is “B (Fresh weight inhibition rate≥260% to <80%)”.

Regarding `Cc1nnc(N(C)C(=O)c2ccc(S(C)(=O)=O)c([S+]([O-])CC(C)C)c2Cl)o1` (racemic) [Compound 3-829], the “Control efficacy grade, Echinochloa crusgalli” value in the test with Echinochloa crusgalli was “A (Fresh weight inhibition rate≥80% to 100%)”. For the same molecule, in the test with Leptochloa chinensis, the “Control efficacy grade, Leptochloa chinensis” value is given as “B (Fresh weight inhibition rate≥260% to <80%)”.

`Cc1nnc(N(C)C(=O)c2ccc(S(C)(=O)=O)c([S+]([O-])CC(F)(F)F)c2Cl)o1` (racemic) [Compound 3-832]: the “Control efficacy grade, Echinochloa crusgalli” value in the test on Echinochloa crusgalli is “A (Fresh weight inhibition rate≥80% to 100%)”.

`Cc1nnc(N(C)C(=O)c2ccc(S(C)(=O)=O)c([S+]([O-])CCCl)c2Cl)o1` (racemic) [Compound 3-835]: in the test with Echinochloa crusgalli, the “Control efficacy grade, Echinochloa crusgalli” value was “A (Fresh weight inhibition rate≥80% to 100%)”.

In the case of `Cn1nnnc1NC(=O)c1ccc(S(C)(=O)=O)c(SC2CCC2)c1Cl` [Compound 1-37], in the test on Echinochloa crusgalli, the “Control efficacy grade, Echinochloa crusgalli” value is “A (Fresh weight inhibition rate≥80% to 100%)”. Further, the “Control efficacy grade, Eclipta prostrata” value in the test with Eclipta prostrata is given as “A (Fresh weight inhibition rate≥80% to 100%)”. Further, the “Control efficacy grade, Cyperus iria” value in the test on Cyperus iria was “A (Fresh weight inhibition rate≥80% to 100%)”.

Regarding `Cn1nnnc1NC(=O)c1ccc(S(C)(=O)=O)c(SC2CCCC2)c1Cl` [Compound 1-42], in the test with Echinochloa crusgalli, the “Control efficacy grade, Echinochloa crusgalli” value is on record as “B (Fresh weight inhibition rate≥260% to <80%)”. The “Control efficacy grade, Eclipta prostrata” value with Eclipta prostrata is given as “A (Fresh weight inhibition rate≥80% to 100%)”. In the test with Cyperus iria, the “Control efficacy grade, Cyperus iria” value is given as “A (Fresh weight inhibition rate≥80% to 100%)”. Besides, in the test on Leptochloa chinensis, the “Control efficacy grade, Leptochloa chinensis” value is given as “A (Fresh weight inhibition rate≥80% to 100%)”.

As to `Cn1nnnc1NC(=O)c1ccc(S(C)(=O)=O)c(SC2CCCCC2)c1Cl` [Compound 1-47], in the test on Echinochloa crusgalli, the “Control efficacy grade, Echinochloa crusgalli” value was “B (Fresh weight inhibition rate≥260% to <80%)”. The “Control efficacy grade, Eclipta prostrata” value in the test on Eclipta prostrata is given as “A (Fresh weight inhibition rate≥80% to 100%)”. Further, the “Control efficacy grade, Cyperus iria” value in the test with Cyperus iria is given as “A (Fresh weight inhibition rate≥80% to 100%)”. Besides, the “Control efficacy grade, Leptochloa chinensis” value with Leptochloa chinensis was “A (Fresh weight inhibition rate≥80% to 100%)”.

For the molecule `CC(C)CS(=O)(=O)c1c(S(C)(=O)=O)ccc(C(=O)Nc2nnco2)c1Cl` [Compound 3-297], the “Control efficacy grade, Eclipta prostrata” value in the test with Eclipta prostrata is “A (Fresh weight inhibition rate≥80% to 100%)”. In addition, in the test on Cyperus iria, the “Control efficacy grade, Cyperus iria” value was “A (Fresh weight inhibition rate≥80% to 100%)”. In the test with Leptochloa chinensis, the “Control efficacy grade, Leptochloa chinensis” value is listed as “B (Fresh weight inhibition rate≥260% to <80%)”.

Regarding `CCc1nnc(NC(=O)c2ccc(S(C)(=O)=O)c(SC(C)C)c2Cl)o1` [Compound 3-388, 2-chloro-N-(5-ethyl-1,3,4-oxadiazol-2-yl)-3-(isopropylthio)-4-(methylsulfonyl)benzamide], the pest or weed control at 150 g/ha lay within 80 to 100% with Echinochloa crusgalli; 80 to 100% in the test on Cyperus iria (Cyperus iria, read-out: Control efficacy grade, Cyperus iria); 80 to 100% in the test with Leptochloa chinensis (Dinebra chinensis, read-out: Control efficacy grade, Leptochloa chinensis).

As to `CCc1nnc(NC(=O)c2ccc(S(C)(=O)=O)c(S(=O)(=O)CC(C)C)c2Cl)o1` [Compound 3-413], the “Control efficacy grade, Eclipta prostrata” value in the test with Eclipta prostrata was “A (Fresh weight inhibition rate≥80% to 100%)”. In addition, in the test on Cyperus iria, the “Control efficacy grade, Cyperus iria” value was “A (Fresh weight inhibition rate≥80% to 100%)”. Also, the “Control efficacy grade, Leptochloa chinensis” value in the test with Leptochloa chinensis is “A (Fresh weight inhibition rate≥80% to 100%)”.

As to `CC(C)c1nnc(NC(=O)c2ccc(S(C)(=O)=O)c(SC3CC3)c2Cl)o1` [Compound 3-535], in the test on Echinochloa crusgalli, the “Control efficacy grade, Echinochloa crusgalli” value is given as “B (Fresh weight inhibition rate≥260% to <80%)”. Further, the “Control efficacy grade, Cyperus iria” value in the test on Cyperus iria was “A (Fresh weight inhibition rate≥80% to 100%)”. For the same molecule, the “Control efficacy grade, Leptochloa chinensis” value in the test with Leptochloa chinensis was “B (Fresh weight inhibition rate≥260% to <80%)”.

With `C=CCSc1c(S(C)(=O)=O)ccc(C(=O)Nc2nnc(C(C)C)o2)c1Cl` [Compound 3-570], in the test with Eclipta prostrata, the “Control efficacy grade, Eclipta prostrata” value is on record as “A (Fresh weight inhibition rate≥80% to 100%)”. Moreover, the “Control efficacy grade, Cyperus iria” value in the test with Cyperus iria is “A (Fresh weight inhibition rate≥80% to 100%)”. The “Control efficacy grade, Leptochloa chinensis” value in the test with Leptochloa chinensis is reported as “B (Fresh weight inhibition rate≥260% to <80%)”.

On to `CCCSc1c(S(C)(=O)=O)ccc(C(=O)N(C)c2nnc(C)o2)c1Cl` [Compound 3-786, 2-chloro-N-methyl-N-(5-methyl-1,3,4-oxadiazol-2-yl)-4-(methylsulfonyl)-3-(propylthio)benzamide], for which the pest or weed control at 150 g/ha in the test with Echinochloa crusgalli lay within 80 to 260%.
